Laboratory results as given in patent publication US20210302113A1, “FLUORINATED DIAMINOOLEFINS AND METHODS OF USING THE SAME” (3M INNOVATIVE PROPERTIES COMPANY, priority 2017, published 2021).

Assay: Thermal stability with absorbents, GC-FID purity after stirring at 60° C. for 24 h
Type: physicochemical
Experimental: The thermal stability was measured by charging a weighed amount of (E)-1,4-bis(perfluoromorpholino)but-2-ene (having a purity of 98.8%) into glass vials and then adding a weighed amount of absorbent. (The purity of the composition was measured by analyzing the sample using GC-FID and comparing the area of the peak of interest to the total peak areas in the chromatogram.) The mixture was stirred at 60° C. for 24 h and then analyzed by GC-FID. The percent purity of the treated sample was determined by the peak area of the (E)-1,4-bis(perfluoromorpholino)but-2-ene peak versus the total peak areas in the GC-FID chromatogram.

In the case of FC1(F)OC(F)(F)C(F)(F)N(C/C=C/CN2C(F)(F)C(F)(F)OC(F)(F)C2(F)F)C1(F)F [(E)-1,4-bis(perfluoromorpholino)but-2-ene], the “GC Purity” value (4 Angstrom Molecular Sieves, starting purity 98.8%) is reported as 98.8%, the “GC Purity” value (Activated Carbon, starting purity 98.8%) is reported as 98.8% and the “GC Purity” value (Basic Alumina, starting purity 98.8%) is reported as 99.5%. The “GC Purity” value (K2CO3, starting purity 98.8%) was 98.9%, the “GC Purity” value (No Adsorbent, starting purity 98.8%) was 98.8% and the “GC Purity” value (Silica Gel, starting purity 98.8%) was 98.8%.
